# Source: patent publication US20180000771A1, “AGENT FOR PREVENTING AND/OR TREATING AMYOTROPHIC LATERAL SCLEROSIS” (KYOTO UNIVERSITY, priority 2015, published 2018)
# Counter-ions that a name gives are not always drawn.
# Assays:
# [1] = system: motoneuron cells derived from iPS cells of sporadic ALS patients; assay: survival of motoneuron cells induced from sporadic ALS patient iPS cells; format: cell-based, human; conditions: added on day 7, survived motoneuron cells counted on day 14
# [2] = system: motoneuron cells derived from iPS cells of ALS patients having C9orf72 mutation; assay: survival of motoneuron cells induced from ALS patient iPS cells (C9orf72 mutation); format: cell-based, human; conditions: for cell survival rate improvement, C9orf72 mutation / cell survival rate improving effect, significance, C9orf72 mutation: added on day 7, survived motoneuron cells counted on day 14
# [3] = system: motoneuron cells derived from iPS cells having SOD1-L144FVX mutation; assay: survival of motoneuron cells induced from ALS patient iPS cells (SOD1 mutation); conditions: for cell survival rate improvement, SOD1 mutation / cell survival rate improving effect, significance, SOD1 mutation: added on day 7, survived motoneuron cells counted on day 14; for MN index (motoneuron cell survival number ratio as compared to negative control): SOD1-L144FVX motoneuron cells contacted with medicament for 7 days, negative control DMSO; for survival of motor neuron: familial ALS (mSOD1 ALS) motoneuron cells, 0, 0.01, 0.1, 1, 10 μM, n=6, p<0.05, FIG. 7; for dose correlation in the protection effect on motoneuron cell having SOD1 mutation: FIG. 2, FIG. 6
compound,measurement,setting,value
COc1cc(Nc2c(C#N)cnc3cc(OCCCN4CCN(C)CC4)c(OC)cc23)c(Cl)cc1Cl [Bosutinib],"cell survival rate improvement, sporadic",[1],○ (cell survival rate improvement not less than 20%)
same,"cell survival rate improving effect, significance, sporadic",[1],○ (significant difference (p < 0.05))
same,"cell survival rate improvement, C9orf72 mutation",[2],○ (cell survival rate improvement not less than 20%)
same,"cell survival rate improving effect, significance, C9orf72 mutation",[2],○ (significant difference (p < 0.05))
same,"cell survival rate improvement, SOD1 mutation",[3],○ (cell survival rate improvement not less than 20%)
same,"cell survival rate improving effect, significance, SOD1 mutation",[3],○ (significant difference (p < 0.05))
"CN1CCc2cccc3c2[C@H]1Cc1ccc(O)c(O)c1-3 [APOMORPHINE HYDROCHLORIDE, APOMORPHINE]",MN index (motoneuron cell survival number ratio as compared to negative control),[3],7.26
O=C(/C=C/C=C/c1ccc2c(c1)OCO2)N1CCCCC1 [PIPERINE],MN index (motoneuron cell survival number ratio as compared to negative control),[3],7.39
CCOc1ccn(-c2ccc(F)cc2)c(=O)c1C(=O)Nc1ccc(Oc2ccnc(N)c2Cl)c(F)c1 [BMS 777607],MN index (motoneuron cell survival number ratio as compared to negative control),[3],8.55
Cn1cnc2cc3c(Nc4cccc(Br)c4)ncnc3cc21 [BPIQ-I],MN index (motoneuron cell survival number ratio as compared to negative control),[3],8.14
"CCN(CC)C(=O)c1ccc(Nc2nc(OCC3CCCCC3)c3nc[nH]c3n2)cc1 [Cdk2 Inhibitor IV, NU6140]",MN index (motoneuron cell survival number ratio as compared to negative control),[3],7.08
O=C(O)CCC(=O)c1ccc(-c2ccccc2)cc1 [FENBUFEN],MN index (motoneuron cell survival number ratio as compared to negative control),[3],7.22
O=C1NC(=O)c2c1c(-c1ccccc1Cl)cc1[nH]c3ccc(O)cc3c21 [Weel Inhibitor],MN index (motoneuron cell survival number ratio as compared to negative control),[3],7.18
Cc1ccc(NC(=O)c2ccc(CN3CCN(C)CC3)cc2)cc1Nc1nccc(-c2cccnc2)n1 [Imatinib],survival of motor neuron,[3],increased survival of motor neuron
CCCCOC(=O)c1ccc(N)cc1 [BUTAMBEN],MN index (motoneuron cell survival number ratio as compared to negative control),[3],7.39
C[C@@H](Oc1cc(-c2cnn(C3CCNCC3)c2)cnc1N)c1c(Cl)ccc(F)c1Cl [Crizotinib],"cell survival rate improvement, sporadic",[1],x (cell survival rate improvement less than 20%)
same,"cell survival rate improving effect, significance, sporadic",[1],x (no significant difference (p ≧ 0.05))
same,"cell survival rate improvement, C9orf72 mutation",[2],x (cell survival rate improvement less than 20%)
same,"cell survival rate improving effect, significance, C9orf72 mutation",[2],○ (significant difference (p < 0.05))
same,efficacy for ALS having SOD1 mutation (conclusion from Tables 5 and 6),[3],higher efficacy
same,dose correlation in the protection effect on motoneuron cell having SOD1 mutation,[3],increase in the effect in a dose-dependent manner
same,"cell survival rate improvement, SOD1 mutation",[3],○ (cell survival rate improvement not less than 20%)
same,"cell survival rate improving effect, significance, SOD1 mutation",[3],○ (significant difference (p < 0.05))
Cc1ccc(NC(=O)c2ccc(CN3CC[C@H](N(C)C)C3)c(C(F)(F)F)c2)cc1Nc1nccc(-c2cncnc2)n1 [Bafetinib],survival of motor neuron,[3],increased survival of motor neuron
Cc1ccc(Nc2nccc(N(C)c3ccc4c(C)n(C)nc4c3)n2)cc1S(N)(=O)=O [Pazopanib Hydrochloride],MN index (motoneuron cell survival number ratio as compared to negative control),[3],9.53
Cc1cc2nc3c(=O)[nH]c(=O)nc-3n(C[C@H](O)[C@H](O)[C@H](O)CO)c2cc1C [RIBOFLAVIN],MN index (motoneuron cell survival number ratio as compared to negative control),[3],9.55
Sunitinib Malate,MN index (motoneuron cell survival number ratio as compared to negative control),[3],8.13
CC(O)CC(=O)O (racemic) [3-hydroxybutyric acid],dose correlation in the protection effect on motoneuron cell having SOD1 mutation,[3],increase in the effect in a dose-dependent manner
COc1ccc2c(c1)/C(=C/c1c[nH]cn1)C(=O)N2 [SU9516],MN index (motoneuron cell survival number ratio as compared to negative control),[3],8.39
"Cc1c(C)c2c(c(C)c1O)CC[C@@](C)(CCC[C@H](C)CCC[C@H](C)CCCC(C)C)O2 [alpha- TOCHOPHEROL, alpha-TOCHOPHEROL]",MN index (motoneuron cell survival number ratio as compared to negative control),[3],9.46
O=C(c1ccc(/C=C/c2n[nH]c3ccccc23)cc1)N1CCNCC1 [KW 2449],MN index (motoneuron cell survival number ratio as compared to negative control),[3],7.72
CNC(=O)c1cc(Oc2ccc(NC(=O)Nc3cc(C(C)(C)C)nn3-c3ccc4ncccc4c3)c(F)c2)ccn1 [Rebastinib],survival of motor neuron,[3],increased survival of motor neuron
Bosutinib [Bosutinib (SKI-606)],MN index (motoneuron cell survival number ratio as compared to negative control),[3],7.20
Cn1cc(C2=C(c3cn(C4CCN(Cc5ccccn5)CC4)c4ccccc34)C(=O)NC2=O)c2ccccc21 [Enzastaurin],MN index (motoneuron cell survival number ratio as compared to negative control),[3],9.84
O=C1Nc2ccccc2/C1=C1/Nc2ccccc2/C1=N\O [Indirubin-3′-monoxime],MN index (motoneuron cell survival number ratio as compared to negative control),[3],7.54
CCNC(=O)CCC/C=C\C[C@@H]1[C@@H](/C=C/[C@@H](O)CCc2ccccc2)[C@H](O)C[C@@H]1O [Bimatoprost],dose correlation in the protection effect on motoneuron cell having SOD1 mutation,[3],increase in the effect in a dose-dependent manner
"Cc1cc(Nc2cc(N3CCN(C)CC3)nc(Sc3ccc(NC(=O)C4CC4)cc3)n2)n[nH]1 [VX-680, tozasertib]",MN index (motoneuron cell survival number ratio as compared to negative control),[3],9.58
O=C(c1ccc(OCCN2CCCCC2)cc1)c1c(-c2ccc(O)cc2)sc2cc(O)ccc12 [Raloxifene],dose correlation in the protection effect on motoneuron cell having SOD1 mutation,[3],increase in the effect in a dose-dependent manner
O=C(Nc1c[nH]nc1-c1nc2cc(CN3CCOCC3)ccc2[nH]1)NC1CC1 [AT9283],survival of motor neuron,[3],increased survival of motor neuron
Oc1ccc(O)cc1 [HYDROQUINONE],MN index (motoneuron cell survival number ratio as compared to negative control),[3],7.96
Cn1cnc(-c2cc3nccc(Oc4ccc(NC(=S)NC(=O)Cc5ccccc5)cc4F)c3s2)c1 [MGCD-265],MN index (motoneuron cell survival number ratio as compared to negative control),[3],7.62
Cc1nc(N)sc1-c1ccnc(Nc2ccc(N3CCOCC3)cc2)n1 [CYC116],MN index (motoneuron cell survival number ratio as compared to negative control),[3],8.14
NCCNc1ncc(C(N)=O)c(Nc2cccc(C(F)(F)F)c2)n1 [Syk Inhibitor II],MN index (motoneuron cell survival number ratio as compared to negative control),[3],7.59
Cc1ccc(Nc2nccc(N(C)c3ccc4c(C)n(C)nc4c3)n2)cc1S(N)(=O)=O [Pazopanib],"cell survival rate improvement, sporadic",[1],x (cell survival rate improvement less than 20%)
same,"cell survival rate improving effect, significance, sporadic",[1],x (no significant difference (p ≧ 0.05))
same,"cell survival rate improvement, C9orf72 mutation",[2],○ (cell survival rate improvement not less than 20%)
same,"cell survival rate improving effect, significance, C9orf72 mutation",[2],○ (significant difference (p < 0.05))
same,"cell survival rate improvement, SOD1 mutation",[3],x (cell survival rate improvement less than 20%)
same,"cell survival rate improving effect, significance, SOD1 mutation",[3],○ (significant difference (p < 0.05))
"CCN(CC)Cc1cc(Nc2ccnc3cc(Cl)ccc23)ccc1O [AMODIAQUINE DIHYDROCHLORIDE, AMODIAQUINE]",MN index (motoneuron cell survival number ratio as compared to negative control),[3],8.98
"C[C@@H](Oc1cc(-c2cnn(C3CCNCC3)c2)cnc1N)c1c(Cl)ccc(F)c1Cl [Crizotinib (PF- 2341066), Crizotinib]",MN index (motoneuron cell survival number ratio as compared to negative control),[3],7.60
CC1=NN(c2ccccc2)C(=O)C1 [Edaravone],dose correlation in the protection effect on motoneuron cell having SOD1 mutation,[3],increase in the effect in a dose-dependent manner
CC1(C)O[C@@H]2C[C@H]3[C@@H]4C[C@H](F)C5=CC(=O)C=C[C@]5(C)[C@H]4[C@@H](O)C[C@]3(C)[C@]2(C(=O)CO)O1 [FLUNISOLIDE],MN index (motoneuron cell survival number ratio as compared to negative control),[3],7.86
Cc1cn(-c2cc(NC(=O)c3ccc(C)c(Nc4nccc(-c5cccnc5)n4)c3)cc(C(F)(F)F)c2)cn1 [Nilotinib],survival of motor neuron,[3],increased survival of motor neuron
O=C1c2ccccc2-c2n[nH]c3cccc1c23 [SP600125],MN index (motoneuron cell survival number ratio as compared to negative control),[3],8.38
CNC(=O)c1ccccc1Sc1ccc2c(/C=C/c3ccccn3)n[nH]c2c1 [Axitinib],"cell survival rate improvement, sporadic",[1],x (cell survival rate improvement less than 20%)
same,"cell survival rate improving effect, significance, sporadic",[1],x (no significant difference (p ≧ 0.05))
same,efficacy for ALS having C9orf72 mutation (conclusion from Tables 5 and 6),[2],higher efficacy
same,"cell survival rate improvement, C9orf72 mutation",[2],○ (cell survival rate improvement not less than 20%)
same,"cell survival rate improving effect, significance, C9orf72 mutation",[2],○ (significant difference (p < 0.05))
same,dose correlation in the protection effect on motoneuron cell having SOD1 mutation,[3],increase in the effect in a dose-dependent manner
same,MN index (motoneuron cell survival number ratio as compared to negative control),[3],7.35
same,"cell survival rate improvement, SOD1 mutation",[3],x (cell survival rate improvement less than 20%)
same,"cell survival rate improving effect, significance, SOD1 mutation",[3],x (no significant difference (p ≧ 0.05))
"COc1ccc2c(c1OC)C(=O)OC2C1c2cc3c(cc2CCN1C)OCO3 [HYDRASTINE (1R,9S)]",MN index (motoneuron cell survival number ratio as compared to negative control),[3],7.53
